The text below walks through data of patent publication US10987359B2, “Oxadiazepinone derivatives and methods of treating hepatitis B infections” (priority 2016, dated 2021).

Read-outs that look alike come from different tables or passages of the source. A value given as a limit tells only on which side of the number the result lay.

In the experiment the test system is HBV. Briefly: HBV replication inhibition assay (BDNA assay) in HepG2.2.15 cells. The experiment is classed as cell-based. The following applies: HepG2.2.15 cells, read-out: DNA EC50. In outline:
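Supernatant encapsidated HBV DNA was measured by bDNA after DNase digestion and proteinase K release. Stably HBV-integrated HepG2.2.15 cells had two 3-day compound exposures (0.5% DMSO). Signals were background-subtracted and normalized to DMSO wells, and EC50 was obtained by four-parameter fit.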

[1] abbreviates: Hepatitis B virus, HepG2.2.15, HBV replication assay (BDNA assay).
The mark [2] stands for this setting: HBV replication assay (BDNA assay).

With `C[C@@H]1Cc2nn3c(c2CN1C(=O)Nc1ccc(F)c(Br)c1)C(=O)N(C)OC(CN)C3` (stereo in doubt) [Compound 117_D1, (4S*,9R)-4-(aminomethyl)-N-(3-bromo-4-fluorophenyl)-2,9-dimethyl-1-oxo-1,4,5,8,9,11-hexahydropyrido[4′,3′:3,4]pyrazolo[5,1-d][1,2,5]oxadiazepine-10(2H)-carboxamide], the EC50 under setting [1] was in the range of 1 to 100 nM.
Still for that read-out and setting: with `CC1CCCC(NC(=O)N2CCc3nn4c(c3C2)C(=O)N(C)OC(CO)C4)C1` (centres unmarked) [Compound 019, 4-(hydroxymethyl)-2-methyl-N-(3-methylcyclohexyl)-1-oxo-1,4,5,8,9,11-hexahydropyrido[4′,3′:3,4]pyrazolo[5,1-d][1,2,5]oxadiazepine-10(2H)-carboxamide] the figure was 500 to 1000 nM; with `CC(=O)NCC1Cn2nc3c(c2C(=O)N(C)O1)CN(C(=O)Nc1ccc(F)c(Br)c1F)CC3` (single isomer, unassigned) [Compound 170_E1, (S*)-4-(acetamidomethyl)-N-(3-bromo-2,4-difluorophenyl)-2-methyl-1-oxo-1,4,5,8,9,11-hexahydropyrido[4′,3′:3,4]pyrazolo[5,1-d][1,2,5]oxadiazepine-10(2H)-carboxamide], 1 to 100 nM.
For the molecule `C[C@@H]1Cc2nn3c(c2CN1C(=O)Nc1ccc(F)c(C(F)(F)F)c1)C(=O)N(C)OC(C)(C)C3` [Compound 214, (5R)—N-[4-Fluoro-3-(trifluoromethyl)phenyl]-5,11,11,13-tetramethyl-14-oxo-12-oxa-4,8,9,13-tetrazatricyclo[7.5.0.0^2.7]tetradeca-1,7-diene-4-carboxamide], the EC50 under setting [1] was 1 to 100 nM.
Still for that read-out and setting: with `CN1OC(C(=O)NCC(F)(F)F)Cn2nc3c(c2C1=O)CN(C(=O)Nc1ccc(F)c(Cl)c1)CC3` (centres unmarked) [Compound 135, N10-(3-chloro-4-fluorophenyl)-2-methyl-1-oxo-N4-(2,2,2-trifluoroethyl)-1,4,5,8,9,11-hexahydropyrido[4′,3′:3,4]pyrazolo[5,1-d][1,2,5]oxadiazepine-4,10(2H)-dicarboxamide] the figure was 1 to 100 nM; with `CNC(=O)C1Cn2nc3c(c2C(=O)N(C)O1)CN(C(=O)Nc1ccc(F)c(C#N)c1F)CC3` (centres unmarked) [Compound 195, N10-(3-cyano-2,4-difluorophenyl)-N4,2-dimethyl-1-oxo-1,4,5,8,9,11-hexahydropyrido[4′,3′:3,4]pyrazolo[5,1-d][1,2,5]oxadiazepine-4,10(2H)-dicarboxamide], 1 to 100 nM.
Consider `C[C@@H]1Cc2nn3c(c2CN1C(=O)Nc1cc(Cl)c(F)cc1F)C(=O)N(C)OC(C(=O)N(C)CC(F)F)C3` (stereo in doubt) [Compound 154_D2, (4R*,9R)—N10-(5-chloro-2,4-difluorophenyl)-N4-(2,2-difluoroethyl)-N4,2,9-trimethyl-1-oxo-1,4,5,8,9,11-hexahydropyrido[4′,3′:3,4]pyrazolo[5,1-d][1,2,5]oxadiazepine-4,10(2H)-dicarboxamide], for which the concentration giving a half-maximal response (EC50) under setting [2] lay within 1 to 100 nM.
`Cc1ccc(C)c(NC(=O)N2CCc3nn4c(c3C2)C(=O)N(C)OC(CO)C4)c1` (centres unmarked) [Compound 016, N-(2,5-dimethylphenyl)-4-(hydroxymethyl)-2-methyl-1-oxo-1,4,5,8,9,11-hexahydropyrido[4′,3′:3,4]pyrazolo[5,1-d][1,2,5]oxadiazepine-10(2H)-carboxamide]: the concentration giving a half-maximal response (EC50) under setting [1] was in the range of 1 to 100 nM.
Same read-out and setting: with `CN1OC(CNCC(F)F)Cn2nc3c(c2C1=O)CN(C(=O)Nc1cc(Cl)c(F)cc1F)CC3` (single isomer, unassigned) [Compound 192_E1, (S*)—N-(5-chloro-2,4-difluorophenyl)-4-(((2,2-difluoroethyl)amino)methyl)-2-methyl-1-oxo-1,4,5,8,9,11-hexahydropyrido[4′,3′:3,4]pyrazolo[5,1-d][1,2,5]oxadiazepine-10(2H)-carboxamide] the figure was 1 to 100 nM; with `CN1OC(CO)Cn2nc3c(c2C1=O)CN(C(=O)Nc1cccc(Cl)c1)CC3(C)C` (centres unmarked) [Compound 046, N-(3-chlorophenyl)-4-(hydroxymethyl)-2,8,8-trimethyl-1-oxo-1,4,5,8,9,11-hexahydropyrido[4′,3′:3,4]pyrazolo[5,1-d][1,2,5]oxadiazepine-10(2H)-carboxamide], 100 to 500 nM.
On to `CNC(=O)C1Cn2nc3c(c2C(=O)N(C)O1)CN(C(=O)Nc1cc(Cl)c(F)cc1F)[C@H](C)C3` (stereo in doubt) [Compound 111_D1, (4S*,9R)—N10-(5-chloro-2,4-difluorophenyl)-N4,2,9-trimethyl-1-oxo-1,4,5,8,9,11-hexahydropyrido[4′,3′:3,4]pyrazolo[5,1-d][1,2,5]oxadiazepine-4,10(2H)-dicarboxamide], for which, under setting [2], the EC50 is > 1000 nM.
`CNC(=O)C1Cn2nc3c(c2C(=O)N(C)O1)CN(C(=O)Nc1ccc(F)c(C#N)c1)CC3` (centres unmarked) [Compound 120, N10-(3-cyano-4-fluorophenyl)-N4,2-dimethyl-1-oxo-1,4,5,8,9,11-hexahydropyrido[4′,3′:3,4]pyrazolo[5,1-d][1,2,5]oxadiazepine-4,10(2H)-dicarboxamide]: under setting [1], the EC50 was in the range of 100 to 500 nM.
With `C[C@@H]1Cc2nn3c(c2CN1C(=O)Nc1ccc(F)c(C(F)(F)F)c1)C(=O)N(C)OC(CNCC(F)F)C3` (single isomer, unassigned) [Compound 182_D2, (4R*,9R)-4-(((2,2-difluoroethyl)amino)methyl)-N-(4-fluoro-3-(trifluoromethyl)phenyl)-2,9-dimethyl-1-oxo-1,4,5,8,9,11-hexahydropyrido[4′,3′:3,4]pyrazolo[5,1-d][1,2,5]oxadiazepine-10(2H)-carboxamide], the concentration for a half-maximal effect (EC50) under setting [2] lay in the range of 1 to 100 nM.
Take `CN(C)C(=O)OCC1Cn2nc3c(c2C(=O)N(C)O1)CN(C(=O)Nc1ccc(F)c(Cl)c1)CC3` (centres unmarked) [Compound 059, [10-[(3-chloro-4-fluoro-phenyl)carbamoyl]-2-methyl-1-oxo-5,8,9,11-tetrahydro-4H-pyrido[2,3]pyrazolo[2,4-d][1,2,5]oxadiazepin-4-yl]methyl N,N-dimethylcarbamate]: under setting [1], the 50% effective concentration (EC50) fell in the range of 1 to 100 nM.
Regarding `C[C@@H]1Cc2nn3c(c2CN1C(=O)Nc1ccnc(Br)c1F)C(=O)N(C)OC(COCC(F)F)C3` (stereo in doubt) [Compound 123_D2, (4R*,9R)—N-(2-bromo-3-fluoropyridin-4-yl)-4-((2,2-difluoroethoxy)methyl)-2,9-dimethyl-1-oxo-1,4,5,8,9,11-hexahydropyrido[4′,3′:3,4]pyrazolo[5,1-d][1,2,5]oxadiazepine-10(2H)-carboxamide], under setting [2], the half-maximal effective concentration (EC50) was 1 to 100 nM.
For `CN1OC(CO)Cn2nc3c(c2C1=O)CN(C(=O)Nc1cc(C(F)(F)F)ccc1F)CC3` (single isomer, unassigned) [Compound 148_E1, (S*)—N-(2-fluoro-5-(trifluoromethyl)phenyl)-4-(hydroxymethyl)-2-methyl-1-oxo-1,4,5,8,9,11-hexahydropyrido[4′,3′:3,4]pyrazolo[5,1-d][1,2,5]oxadiazepine-10(2H)-carboxamide], under setting [1], the EC50 was 100 to 500 nM.
Same read-out and setting: in the case of `CN1NCCn2nc3c(c2C1=O)CN(C(=O)Nc1ccc(F)c(Cl)c1)CC3` [Compound 216, N-(3-Chloro-4-fluoro-phenyl)-2-methyl-1-oxo-3,4,5,8,9,11-hexahydropyrido[2,3]pyrazolo[2,4-c][1,2,5]triazepine-10-carboxamide] it was 100 to 500 nM; in that of `CC(O)C1=NN(C)C(=O)c2c3c(nn2C1)CCN(C(=O)Nc1ccc(F)c(Cl)c1)C3` (centres unmarked) [Compound 230, N-(3-chloro-4-fluorophenyl)-4-(1-hydroxyethyl)-2-methyl-1-oxo-1,2,5,8,9,11-hexahydro-10H-pyrido[4′,3′:3,4]pyrazolo[5,1-d][1,2,5]triazepine-10-carboxamide], 1 to 100 nM.
With `C[C@@H]1Cc2nn3c(c2CN1C(=O)Nc1ccc(F)c(Br)c1)C(=O)N(C)OC(CN)C3` (stereo in doubt) [Compound 117_D2, (4R*,9R)-4-(aminomethyl)-N-(3-bromo-4-fluorophenyl)-2,9-dimethyl-1-oxo-1,4,5,8,9,11-hexahydropyrido[4′,3′:3,4]pyrazolo[5,1-d][1,2,5]oxadiazepine-10(2H)-carboxamide], the EC50 under setting [2] lay within 1 to 100 nM.
For `CCCN1CCn2nc3c(c2C(=O)N1C)CN(C(=O)Nc1ccc(F)c(C#N)c1)[C@H](C)C3` [Compound 219, (R)—N-(3-cyano-4-fluorophenyl)-2,9-dimethyl-1-oxo-3-propyl-1,2,3,4,5,8,9,11-octahydro-10H-pyrido[4′,3′:3,4]pyrazolo[5,1-d][1,2,5]triazepine-10-carboxamide], the half-maximal effective concentration (EC50) under setting [1] was 1 to 100 nM.
Same read-out and setting: with `CN1OC(C(=O)N2CC(F)(F)C2)Cn2nc3c(c2C1=O)CN(C(=O)Nc1ccc(F)c(Cl)c1)CC3` (centres unmarked) [Compound 131, N-(3-chloro-4-fluorophenyl)-4-(3,3-difluoroazetidine-1-carbonyl)-2-methyl-1-oxo-1,4,5,8,9,11-hexahydropyrido[4′,3′:3,4]pyrazolo[5,1-d][1,2,5]oxadiazepine-10(2H)-carboxamide] the figure was 1 to 100 nM.
Consider `CNC(=O)C1Cn2nc3c(c2C(=O)N(C)O1)CN(C(=O)Nc1cc(Cl)c(F)cc1F)CC3` (centres unmarked) [Compound 119, N10-(5-chloro-2,4-difluorophenyl)-N4,2-dimethyl-1-oxo-1,4,5,8,9,11-hexahydropyrido[4′,3′:3,4]pyrazolo[5,1-d][1,2,5]oxadiazepine-4,10(2H)-dicarboxamide], for which the 50% effective concentration (EC50) under setting [1] lay in the range of 100 to 500 nM.
`C[C@@H]1Cc2nn3c(c2CN1C(=O)Nc1cc(Br)c(F)cc1F)C(=O)N(C)OC(CO)C3` (stereo in doubt) [Compound 089_E1, (4S*,9R)—N-(5-bromo-2,4-difluorophenyl)-4-(hydroxymethyl)-2,9-dimethyl-1-oxo-1,4,5,8,9,11-hexahydropyrido[4′,3′:3,4]pyrazolo[5,1-d][1,2,5]oxadiazepine-10(2H)-carboxamide]: the EC50 under setting [1] lay within 1 to 100 nM.
